According to US20160046616A1, “NRF2 SMALL MOLECULE INHIBITORS FOR CANCER THERAPY” (THE JOHNS HOPKINS UNIVERSITY, priority 2013, published 2016):

Experiments:
Format in all cases: cell-based
[1] = system: A549 NRF2-ARE-Fluc stable cell line; test: A549 Nrf2 assay: NRF2-ARE firefly luciferase reporter gene assay; settings: Homo sapiens, read-out: Potency of inhibition, A549
Procedure, shortened: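 A549 cells (Keap1 loss-of-function, constitutive NRF2) stably carrying ARE-driven firefly luciferase; compound treatment 18–24 h at 37 °C, 0.46% DMSO final.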

[2] = system: H838 NRF2-ARE-Fluc stable cell line; test: H838 Nrf2 assay: NRF2-ARE firefly luciferase reporter gene assay; settings: Homo sapiens, NCI-H838, read-out: Potency of inhibition, H838
Source text: H838 is a NSCLC cell line with LOF Keap1 activity and constitutive translocation of NRF2 into the nucleus. A firefly luciferase reporter construct driven by a minimal promoter of NRF2-specific ARE is stably expressed in the H838 cells. This cell line was used as a confirmation assay to make sure hits identified from primary screening and that passed counterscreen assays worked in different cell types with a constitutively active NRF2 pathway (deficiency in Keap1).
This assay was very similar to the primary assay except that the cell line was changed. […] The final concentration of DMSO was maintained at 0.46%. Control compounds Budesonide and Staurosporine were both added at a concentration of 2 mM and Budesonide was also added as a 1:10 titration, starting at 200 μM, to achieve dose-response. After an 18-24 hour incubation at 37° C., 95% humidity, and 5% CO2, 1 μL of 5× CellTiter-Fluor non-lytic cell viability assay reagent (Promega, Madison Wis.) was added into the each well of the plates. The plates were then incubated for 30 minutes at room temperature before they were read on a ViewLux plate imager (Perkin Elmer, Waltham Mass.) using an excitation wavelength of 405 nm and an emission wavelength of 525 nm.
Representative compounds were assayed to assess the potency of inhibition in an A549 NRF2-ARE-Fluc stable cell line (A549 Nrf2 assay), in an H838 NRF2-ARE-Fluc stable cell line (H838 Nrf2 assay), and in an H1437 NRF2-ARE-Fluc stable cell line (H1437 Nrf2 assay) (see Table 3).

[3] = system: H1437 NRF2-ARE-Fluc stable cell line; test: H1437 Nrf2 assay: NRF2-ARE firefly luciferase reporter gene assay; settings: Homo sapiens, NCI-H1437, H1437 NRF2-ARE-Fluc stable cell line; read-out: Potency of inhibition, H1437

IC50 [1] | IC50 [2] | IC50 [3] | Compound
< 5 µM | > 25 µM | 5 to 25 µM | O=C(Nc1ccc(S(=O)(=O)N2CCOCC2)cc1)c1ccc(CN2CCc3ccccc3C2)cc1 [Compound 48]
< 5 µM | > 25 µM | < 5 µM | CCN(CC)S(=O)(=O)c1cccc(NC(=O)CNc2cccc(S(=O)(=O)N3CCOCC3)c2)c1 [Compound 49]
< 5 µM | > 25 µM | > 25 µM | Cc1ccc(C(=O)Nc2nc(-c3ccccn3)cs2)cc1S(=O)(=O)N1CCOCC1 [Compound 50]
< 5 µM | – | < 5 µM | CN(Cc1ccccc1)Cc1ccc(C(=O)Nc2ccc(S(=O)(=O)N3CCOCC3)cc2)cc1 [compound 168]
< 5 µM | – | < 5 µM | CC1CN(S(=O)(=O)c2ccc(NC(=O)c3ccc(CN4CCc5ccccc5C4)cc3)cc2)CCO1 (stereo not drawn) [compound 169]
< 5 µM | – | > 25 µM | O=C(Nc1ccc(S(=O)(=O)N2CCOC(c3ccccc3)C2)cc1)c1ccc(CN2CCc3ccccc3C2)cc1 (stereo not drawn) [compound 171]
< 5 µM | – | < 5 µM | O=C(Nc1ccc(S(=O)(=O)N2CCOCC2)cc1)c1ccc(CN2CCCc3ccccc32)cc1 [compound 172]
< 5 µM | – | < 5 µM | CN(C1COC1)S(=O)(=O)c1ccc(NC(=O)c2ccc(CN3CCc4ccccc4C3)cc2)cc1 [compound 173]
< 5 µM | – | > 25 µM | COCCN(C)S(=O)(=O)c1ccc(NC(=O)c2ccc(CN3CCc4ccccc4C3)cc2)cc1 [compound 174]
< 5 µM | – | 5 to 25 µM | O=C(Nc1ccc(S(=O)(=O)NC2CCOCC2)cc1)c1ccc(CN2CCc3ccccc3C2)cc1 [compound 176]
< 5 µM | – | < 5 µM | O=C(Nc1ccc(OC(F)(F)F)cc1)c1ccc(CN2CCc3ccccc3C2)cc1 [compound 178]
5 to 25 µM | – | > 25 µM | O=C(Nc1ccc(S(=O)(=O)N2CCOCC2)cc1)c1ccc(CN2CCCCC2)cc1 [compound 179]
< 5 µM | – | < 5 µM | O=C(Nc1ccc(S(=O)(=O)N2CCC(F)(F)CC2)cc1)c1ccc(CN2CCc3ccccc3C2)cc1 [compound 188]
5 to 25 µM | – | > 25 µM | CN(C(=O)c1ccc(CN2CCc3ccccc3C2)cc1)c1ccc(S(=O)(=O)N2CCOCC2)cc1 [compound 225]
< 5 µM | – | < 5 µM | CC(c1ccc(C(=O)Nc2ccc(S(=O)(=O)N3CCOCC3)cc2)cc1)N1CCc2ccccc2C1 (stereo not drawn) [compound 226]

Compound | IC50 [1] | IC50 [2] | IC50 [3]
COc1ccccc1C(=O)Nc1nc(-c2ccc(S(=O)(=O)N3CCOCC3)cc2)cs1 [Compound 47] | < 5 µM | < 5 µM | < 5 µM
